US11395857B2, “Radiolabeled melanocortin 1 receptor-specific alpha-melanocyte-stimulating hormone analogues for imaging or therapy” (PROVINCIAL HEALTH SERVICES AUTHORITY, priority 2018, dated 2022)
Like-named read-outs stand apart in the source and are kept apart here.

Assays:
[1] = Biodistribution of 177Lu-labeled αMSH analogues in mice bearing B16F10 mouse melanoma; type: in vivo, C57BL/6J mice; settings: mouse, iv, total radioactivity, C57BL/6J mice, B16F10 melanoma
Description: (§1) The B16-F10 mouse melanoma cells were cultured and inoculated in mice as described in Example 1.
(§2) For biodistribution studies, approximately 1-2 MBq of ^177Lu-labeled αMSH analogues via tail vein under anesthesia. At 1, 4, 24, and 120 h p.i., the mice were euthanized by CO2 inhalation. Organs/tissues were harvested and the radioactivity was measured as described in Example 1.

B16F10 mouse melanoma = assay: as above; type: in vivo, C57BL/6J mice; settings: C57BL/6J mice, B16F10 melanoma
Description: as §1, §2

tissue uptake at 1 h ([1]; male, seminal glands, 1 h p.i., read-out: Biodistribution, Seminal glands): 0.48 ± 0.13 %ID/g
tissue uptake at 4 h ([1]; male, seminal glands, 4 h p.i., read-out: Biodistribution, Seminal glands): 0.32 ± 0.15 %ID/g
tissue uptake at 24 h ([1]; male, seminal glands, 24 h p.i., read-out: Biodistribution, Seminal glands): 0.1 ± 0.04 %ID/g
tissue uptake at 120 h ([1]; male, seminal glands, 120 h p.i., read-out: Biodistribution, Seminal glands): 0.04 ± 0.02 %ID/g
tissue uptake at 1 h ([1]; male, testes, 1 h p.i., read-out: Biodistribution, Testes): 1.3 ± 0.4 %ID/g
tissue uptake at 4 h ([1]; male, testes, 4 h p.i., read-out: Biodistribution, Testes): 0.75 ± 0.26 %ID/g
tissue uptake at 24 h ([1]; male, testes, 24 h p.i., read-out: Biodistribution, Testes): 0.32 ± 0.17 %ID/g
tissue uptake at 120 h ([1]; male, testes, 120 h p.i., read-out: Biodistribution, Testes): 0.2 ± 0.11 %ID/g
tissue uptake at 1 h ([1]; adrenal glands, 1 h p.i., read-out: Biodistribution, Adrenal glands): 2.62 ± 1.48 %ID/g
tissue uptake at 4 h ([1]; adrenal glands, 4 h p.i., read-out: Biodistribution, Adrenal glands): 1.31 ± 0.56 %ID/g
tissue uptake at 24 h ([1]; adrenal glands, 24 h p.i., read-out: Biodistribution, Adrenal glands): 0.41 ± 0.35 %ID/g
tissue uptake at 120 h ([1]; adrenal glands, 120 h p.i., read-out: Biodistribution, Adrenal glands): 0.33 ± 0.23 %ID/g
tissue uptake at 1 h ([1]; blood, 1 h p.i., read-out: Biodistribution, Blood): 8.32 ± 2.74 %ID/g
tissue uptake at 4 h ([1]; blood, 4 h p.i., read-out: Biodistribution, Blood): 2.82 ± 1.17 %ID/g
tissue uptake at 24 h ([1]; blood, 24 h p.i., read-out: Biodistribution, Blood): 0.33 ± 0.57 %ID/g
tissue uptake at 120 h ([1]; blood, 120 h p.i., read-out: Biodistribution, Blood): 0.03 ± 0.04 %ID/g
tissue uptake at 1 h ([1]; bone, 1 h p.i., read-out: Biodistribution, Bone): 0.84 ± 0.19 %ID/g
tissue uptake at 4 h ([1]; bone, 4 h p.i., read-out: Biodistribution, Bone): 0.51 ± 0.11 %ID/g
tissue uptake at 24 h ([1]; bone, 24 h p.i., read-out: Biodistribution, Bone): 0.31 ± 0.08 %ID/g
tissue uptake at 120 h ([1]; bone, 120 h p.i., read-out: Biodistribution, Bone): 0.17 ± 0.07 %ID/g
tissue uptake at 1 h ([1]; brain, 1 h p.i., read-out: Biodistribution, Brain): 0.13 ± 0.03 %ID/g
tissue uptake at 4 h ([1]; brain, 4 h p.i., read-out: Biodistribution, Brain): 0.06 ± 0.02 %ID/g
tissue uptake at 24 h ([1]; brain, 24 h p.i., read-out: Biodistribution, Brain): 0.01 ± 0.02 %ID/g
tissue uptake at 120 h ([1]; brain, 120 h p.i., read-out: Biodistribution, Brain): 0.01 ± 0.01 %ID/g
tissue uptake at 1 h ([1]; fat, 1 h p.i., read-out: Biodistribution, Fat): 0.61 ± 0.23 %ID/g
tissue uptake at 4 h ([1]; fat, 4 h p.i., read-out: Biodistribution, Fat): 0.39 ± 0.12 %ID/g
tissue uptake at 24 h ([1]; fat, 24 h p.i., read-out: Biodistribution, Fat): 0.1 ± 0.13 %ID/g
tissue uptake at 120 h ([1]; fat, 120 h p.i., read-out: Biodistribution, Fat): 0.05 ± 0.05 %ID/g
tissue uptake at 1 h ([1]; heart, 1 h p.i., read-out: Biodistribution, Heart): 2.03 ± 0.68 %ID/g
tissue uptake at 4 h ([1]; heart, 4 h p.i., read-out: Biodistribution, Heart): 0.8 ± 0.32 %ID/g
tissue uptake at 24 h ([1]; heart, 24 h p.i., read-out: Biodistribution, Heart): 0.18 ± 0.17 %ID/g
tissue uptake at 120 h ([1]; heart, 120 h p.i., read-out: Biodistribution, Heart): 0.09 ± 0.04 %ID/g
tissue uptake at 1 h ([1]; intestine, 1 h p.i., read-out: Biodistribution, Intestine): 1.34 ± 0.28 %ID/g
tissue uptake at 4 h ([1]; intestine, 4 h p.i., read-out: Biodistribution, Intestine): 2.91 ± 4.94 %ID/g
tissue uptake at 24 h ([1]; intestine, 24 h p.i., read-out: Biodistribution, Intestine): 0.43 ± 0.32 %ID/g
tissue uptake at 120 h ([1]; intestine, 120 h p.i., read-out: Biodistribution, Intestine): 0.08 ± 0.07 %ID/g
tissue uptake at 1 h ([1]; kidneys, 1 h p.i., read-out: Biodistribution, Kidneys): 11.7 ± 5.52 %ID/g
tissue uptake at 4 h ([1]; kidneys, 4 h p.i., read-out: Biodistribution, Kidneys): 11.6 ± 5.03 %ID/g
tissue uptake at 24 h ([1]; kidneys, 24 h p.i., read-out: Biodistribution, Kidneys): 8.63 ± 6.4 %ID/g
tissue uptake at 120 h ([1]; kidneys, 120 h p.i., read-out: Biodistribution, Kidneys): 1.98 ± 0.72 %ID/g
tissue uptake at 1 h ([1]; liver, 1 h p.i., read-out: Biodistribution, Liver): 3.45 ± 0.31 %ID/g
tissue uptake at 4 h ([1]; liver, 4 h p.i., read-out: Biodistribution, Liver): 3.83 ± 0.28 %ID/g
tissue uptake at 24 h ([1]; liver, 24 h p.i., read-out: Biodistribution, Liver): 2.41 ± 0.34 %ID/g
tissue uptake at 120 h ([1]; liver, 120 h p.i., read-out: Biodistribution, Liver): 0.9 ± 0.12 %ID/g
tissue uptake at 1 h ([1]; lungs, 1 h p.i., read-out: Biodistribution, Lungs): 5.11 ± 2.81 %ID/g
tissue uptake at 4 h ([1]; lungs, 4 h p.i., read-out: Biodistribution, Lungs): 2.46 ± 0.54 %ID/g
tissue uptake at 24 h ([1]; lungs, 24 h p.i., read-out: Biodistribution, Lungs): 0.42 ± 0.34 %ID/g
tissue uptake at 120 h ([1]; lungs, 120 h p.i., read-out: Biodistribution, Lungs): 0.54 ± 0.87 %ID/g
tissue uptake at 1 h ([1]; muscle, 1 h p.i., read-out: Biodistribution, Muscle): 0.79 ± 0.22 %ID/g
tissue uptake at 4 h ([1]; muscle, 4 h p.i., read-out: Biodistribution, Muscle): 0.39 ± 0.1 %ID/g
tissue uptake at 24 h ([1]; muscle, 24 h p.i., read-out: Biodistribution, Muscle): 0.06 ± 0.05 %ID/g
tissue uptake at 120 h ([1]; muscle, 120 h p.i., read-out: Biodistribution, Muscle): 0.03 ± 0.02 %ID/g
tissue uptake at 1 h ([1]; pancreas, 1 h p.i., read-out: Biodistribution, Pancreas): 1.14 ± 0.32 %ID/g
tissue uptake at 4 h ([1]; pancreas, 4 h p.i., read-out: Biodistribution, Pancreas): 0.52 ± 0.27 %ID/g
tissue uptake at 24 h ([1]; pancreas, 24 h p.i., read-out: Biodistribution, Pancreas): 0.17 ± 0.19 %ID/g
tissue uptake at 120 h ([1]; pancreas, 120 h p.i., read-out: Biodistribution, Pancreas): 0.09 ± 0.05 %ID/g
tissue uptake at 1 h ([1]; spleen, 1 h p.i., read-out: Biodistribution, Spleen): 2.1 ± 1.03 %ID/g
tissue uptake at 4 h ([1]; spleen, 4 h p.i., read-out: Biodistribution, Spleen): 1.46 ± 0.67 %ID/g
tissue uptake at 24 h ([1]; spleen, 24 h p.i., read-out: Biodistribution, Spleen): 1.05 ± 0.45 %ID/g
tissue uptake at 120 h ([1]; spleen, 120 h p.i., read-out: Biodistribution, Spleen): 0.65 ± 0.34 %ID/g
tissue uptake at 1 h ([1]; stomach, 1 h p.i., read-out: Biodistribution, Stomach): 0.89 ± 0.5 %ID/g
tissue uptake at 4 h ([1]; stomach, 4 h p.i., read-out: Biodistribution, Stomach): 1.65 ± 2.22 %ID/g
tissue uptake at 24 h ([1]; stomach, 24 h p.i., read-out: Biodistribution, Stomach): 1.17 ± 0.77 %ID/g
tissue uptake at 120 h ([1]; stomach, 120 h p.i., read-out: Biodistribution, Stomach): 0.19 ± 0.21 %ID/g
tissue uptake at 1 h ([1]; thyroid, 1 h p.i., read-out: Biodistribution, Thyroid): 3.41 ± 0.51 %ID/g
tissue uptake at 4 h ([1]; thyroid, 4 h p.i., read-out: Biodistribution, Thyroid): 3.86 ± 0.39 %ID/g
tissue uptake at 24 h ([1]; thyroid, 24 h p.i., read-out: Biodistribution, Thyroid): 4.03 ± 1.33 %ID/g
tissue uptake at 120 h ([1]; thyroid, 120 h p.i., read-out: Biodistribution, Thyroid): 0.86 ± 0.31 %ID/g
tissue to tissue ratio at 1 h ([1]; tumour/blood, 1 h p.i., read-out: Tumour/blood): 1.82 ± 0.82
tissue to tissue ratio at 4 h ([1]; tumour/blood, 4 h p.i., read-out: Tumour/blood): 8.59 ± 4.19
tissue to tissue ratio at 24 h ([1]; tumour/blood, 24 h p.i., read-out: Tumour/blood): 87.6 ± 47.8
tissue to tissue ratio at 120 h ([1]; tumour/blood, 120 h p.i., read-out: Tumour/blood): 52.9 ± 41.3
tissue to tissue ratio at 1 h ([1]; tumour/kidney, 1 h p.i., read-out: Tumour/kidney): 1.41 ± 0.71
tissue to tissue ratio at 4 h ([1]; tumour/kidney, 4 h p.i., read-out: Tumour/kidney): 2.05 ± 0.86
tissue to tissue ratio at 24 h ([1]; tumour/kidney, 24 h p.i., read-out: Tumour/kidney): 1.14 ± 0.5
tissue to tissue ratio at 120 h ([1]; tumour/kidney, 120 h p.i., read-out: Tumour/kidney): 0.42 ± 0.18
tissue to tissue ratio at 1 h ([1]; tumour/muscle, 1 h p.i., read-out: Tumour/muscle): 18.7 ± 8.13
tissue to tissue ratio at 4 h ([1]; tumour/muscle, 4 h p.i., read-out: Tumour/muscle): 57.7 ± 22.4
tissue to tissue ratio at 24 h ([1]; tumour/muscle, 24 h p.i., read-out: Tumour/muscle): 167 ± 88.7
tissue to tissue ratio at 120 h ([1]; tumour/muscle, 120 h p.i., read-out: Tumour/muscle): 38.9 ± 24
excreta dose per gram or mL at 1 h ([1]; urine, 1 h p.i.): 87.9 ± 48.2 %ID/g
excreta dose per gram or mL at 4 h ([1]; urine, 4 h p.i.): 113 ± 29.4 %ID/g
excreta dose per gram or mL at 24 h ([1]; urine, 24 h p.i.): 6.11 ± 1.66 %ID/g
excreta dose per gram or mL at 120 h ([1]; urine, 120 h p.i.): 1.21 ± 0.21 %ID/g
Biodistribution, B16F10 tumour (B16F10 mouse melanoma; 1 h p.i.): 13.3 ± 3.34 % ID/g
Biodistribution, B16F10 tumour (B16F10 mouse melanoma; 4 h p.i.): 20.8 ± 5.37 % ID/g
Biodistribution, B16F10 tumour (B16F10 mouse melanoma; 24 h p.i.): 7.59 ± 1.70 % ID/g
Biodistribution, B16F10 tumour (B16F10 mouse melanoma; 120 h p.i.): 0.79 ± 0.39 % ID/g
SMILES: CCCC[C@H](NC(=O)CN1CCC(NC(=O)[C@H](CCCCNC(=O)CN2CCN(CC(=O)O)CCN(CC(=O)O)CCN(CC(=O)O)CC2)NC(=O)[C@H](CCC(=O)O)NC(=O)CCCc2ccc(I)cc2)CC1)C(=O)N[C@H]1CC(=O)NCCCC[C@@H](C(N)=O)NC(=O)[C@H](Cc2c[nH]c3ccccc23)NC(=O)[C@H](CCCNC(=N)N)NC(=O)[C@@H](Cc2ccccc2)NC(=O)[C@H](Cc2c[nH]cn2)NC1=O [^177Lu-labeled CCZ01082, metal not drawn]
